Where two headings read alike, the source gives them in different places.
Assays:
[1] = system: acetylcholine-induced bronchospasm; experiment: Bronchorelaxation in vivo: acetylcholine-induced bronchoconstriction in Brown Norway rats, RL and Cdyn (C-3.2); design: species or system rat; conditions: inhaled 60 minutes before provocation; tiotropium 1 μg/kg; comparative example 11 1, 10 and 100 μg/kg
Description: The bronchoconstriction model (see Hoymann H G. Lung function measurements in rodents in safety pharmacology studies. Front Pharmacol 2012; 3:156) used Male Brown Norway rats (Charles River, Sulzfeld, Germany; 10-12 weeks old) randomized to three treatment groups (comparative example 11, 1 μg/kg, 10 μg/kg, and 100 μg/kg; n=12-13), one positive control group (tiotropium 1 μg/kg; n=12), and one vehicle control group (n=17). Animals were treated with the inhaled test compounds 60 minutes before provocation. Comparative example 11, vehicle, or tiotropium were aerosolized using a micro feeding system and a dispersion nozzle operated with pressurized air. The aerosol concentration was determined by filter sampling with gravimetrical analysis and monitored continuously by a photometer. The lung-deposited doses were assessed from the inhalation dose (Raabe O G, Al-Bayati M A, Teague S V, Rasolt A. Regional Deposition of Inhaled Monodisperse Coarse and Fine Aerosol Particles in Small Laboratory Animals. The Annals of Occupational Hygiene 1988; 32:53-63.). […] After reaching a steady state in respiration, lung function of the spontaneously breathing animal was recorded as baseline values for ≥2 minutes; amongst other parameters, lung resistance (=RL) and dynamic compliance (=Cdyn) were used to assess bronchoconstriction. […]

[2] = system: allergen-induced late airway hyperresponsiveness and inflammation in sensitized mice; experiment: Chronic asthma model: ovalbumin sensitized BALB/c mice, airway hyperresponsiveness and BAL (C-3.3); type: in vivo, mouse; conditions: for inhibition at 0.1 mg/kg: Mus musculus, dexamethasone 18 h and 1 h before each Ova challenge, comparative example 11 high dose of 100 μg/kg 2 h before
Description: The study was conducted to investigate whether inhalative treatment with comparative example 11 has a protective effect on the experimentally allergen-induced late airway hyperresponsiveness and inflammation in sensitized mice. Female BALB/c mice were sensitized and boosted with Ovalbumin (Ova) and aluminium hydroxide adjuvant (day 0. 14 and 21) with the exception of the negative control group receiving NaCl. On day 28 and 29. the animals were challenged with Ova aerosol. On day 30, a hyperresponsiveness test followed by bronchoalveolar lavage (BAL) was performed in all animals of all groups. The treatment groups D (10 μg) and E (100 μg) were treated with comparative example 11 inhalationally 2 h before each Ova challenge. Group A and B, the positive and negative control groups, were treated correspondingly with the vehicle. The Ova-sensitized positive control group A should show the full allergic reaction and, in contrast, the sham-sensitized negative control group B should show no allergic response. As a reference group, the animals of group C were treated inhalative with the corticosteroid dexamethasone but—due to its different mechanism of action—18 h and 1 h before each Ova challenge (on day 27, 28 and 29). On day 30, 24 h after Ova challenge in the late allergic phase, lung function—especially RL—was measured in the orotracheally intubated mice and a test on airway hyperresponsiveness was performed (inhalational methacholine provocation in doubling dose steps). […] These inhibitory effects show the successful therapeutic intervention.

Compound: O=C(O)c1ccc(CCN(CCc2ccccc2OCc2ccc(-c3ccc(C(F)(F)F)cc3)cc2Cl)[C@H]2CCCc3nc(C(=O)O)ccc32)cc1 [comparative example 11, (5S)-5-{[2-(4-carboxyphenyl)ethyl][2-(2-{[3-chloro-4′-(trifluoromethyl)[biphenyl]-4-yl]methoxy}phenyl)ethyl]amino}-5,6,7,8-tetrahydroquinoline-2-carboxylic acid]
- bronchodilatory efficacy (RL) [1]: dose-dependent significant (1, 10 and 100 μg/kg) bronchodilating effect
- inhibition at 0.1 mg/kg ([2]; read-out: inhibition of the airway hyperresponsiveness (ED100)): 38%
- inhibition at 0.1 mg/kg ([2]; read-out: inhibition of the airway hyperresponsiveness (ED150)): 32%
- inhibition of the eosinophilic influx ([2]; high dose group (100 μg)): 31%
- effect on airway hyperresponsiveness ([2]; low dose (10 μg)): no or only marginal effects
- inhibition of the eosinophilic influx ([2]; low dose group (10 μg)): 19%

Reference: US12138256B2, “Treatment of cardiopulmonary disorders” (Bayer Aktiengesellschaft, priority 2021, dated 2024)
